Experimental data published in ChEMBL document CHEMBL1142611, “Neovibsanin F and its congeners, rearranged vibsane-type diterpenes from Viburnum suspensum” (J Nat Prod, 2006).
In brackets after ≈: the same amount, converted by molar mass.

Legend:
Artemia = assay: Toxicity in brine shrimp at 100 ug/mL; assay type: organism-based; conditions: in vivo
KB = assay: Cytotoxicity against human KB cells; assay type: functional, cell-based
[1] = Toxicity in brine shrimp; assay type: organism-based; conditions: artemia, in vivo; read-out: LD50 (the source's name)

In the case of `CC(=O)C[C@@H]1OC(=O)C2=C1[C@H](/C=C/OC(=O)C=C(C)C)[C@@]1(C)CC[C@H](C(C)(C)O)[C@@H]2C1`, the Activity (Artemia) is reported as “Not Active”.

In the case of `CC(=O)C[C@@H]1OCC2=C1[C@H](/C=C/OC(=O)C=C(C)C)[C@@]1(C)CC[C@H](C(C)(C)O)[C@@H]2C1`, the Activity (Artemia) is reported as “Not Active”.

`COc1cccc2c1C(=O)c1c(O)c3c(c(O)c1C2=O)C[C@@](O)(C(=O)CO)C[C@@H]3O[C@H]1C[C@H](N)[C@H](O)[C@H](C)O1` [DOXORUBICIN] gave an IC50 (KB) of 0.007 µM.

With `CC(=O)C[C@@H]1OCC2=C1[C@H](/C=C/OC(=O)C=C(C)C)[C@@]1(C)CC[C@@H](C(C)(C)O)[C@@H]2C1` [NEOVIBSANIN F] the LC50 [1] was 46 µg/mL (≈ 110 µM).

For `CC(=O)C[C@@H]1OCC2=C1[C@H](/C=C/OC(=O)C=C(C)C)[C@@](C)(CCC=C(C)C)C[C@H]2O` [NEOVIBSANIN I], the IC50 (KB) was 18 µM.

`CC(C)=CCC[C@]1(C)/C=C/[C@@H](OC(=O)C=C(C)C)[C@](C)(O)/C=C/C(=O)/C(CO)=C\C1` [VIBSANIN B] showed an LC50 [1] of 17.5 µg/mL (≈ 42 µM) and an IC50 (KB) of 3.5 µM.
